Experimental data reported in paper PMC8121805, “Discovery of first-in-class inhibitors of ASH1L histone methyltransferase with anti-leukemic activity” (Nature Communications, 2021).
“And” between values parts separate entries of the source, which are not always exact repeats. Identical values can stand only once.

Columns and labels:
[1] = Effect on normal hematopoiesis: flow cytometry of myeloid, B- and T-cells in blood; assay type: in vivo
From the text: width, MPV – Mean platelet volume). n = 9 mice / group. Mean +/- SD. b) Flow cytometry analysis […]
assess the effect on myeloid, B- and T-cells. Statistical significance calculated us ing unpaired 2-tailed t-test. n = 9 mice / group. Mean +/- SD. ns - not significant. (c) Representative gating strategy corresponding to the Supplementary Figure 12b for quantification of myeloid, B- and T-cells in blood samples of mice treated with vehicle or AS-99. SSC-A – side scatter area; FSC-A – forward scatter area; FSC-H – forward scatter height.

G9a = G9a (Homo sapiens, UniProt Q96KQ7); test: HMT selectivity panel; conditions: 50 µM compound
G9a, sequence (Q96KQ7 whole entry, species assumed): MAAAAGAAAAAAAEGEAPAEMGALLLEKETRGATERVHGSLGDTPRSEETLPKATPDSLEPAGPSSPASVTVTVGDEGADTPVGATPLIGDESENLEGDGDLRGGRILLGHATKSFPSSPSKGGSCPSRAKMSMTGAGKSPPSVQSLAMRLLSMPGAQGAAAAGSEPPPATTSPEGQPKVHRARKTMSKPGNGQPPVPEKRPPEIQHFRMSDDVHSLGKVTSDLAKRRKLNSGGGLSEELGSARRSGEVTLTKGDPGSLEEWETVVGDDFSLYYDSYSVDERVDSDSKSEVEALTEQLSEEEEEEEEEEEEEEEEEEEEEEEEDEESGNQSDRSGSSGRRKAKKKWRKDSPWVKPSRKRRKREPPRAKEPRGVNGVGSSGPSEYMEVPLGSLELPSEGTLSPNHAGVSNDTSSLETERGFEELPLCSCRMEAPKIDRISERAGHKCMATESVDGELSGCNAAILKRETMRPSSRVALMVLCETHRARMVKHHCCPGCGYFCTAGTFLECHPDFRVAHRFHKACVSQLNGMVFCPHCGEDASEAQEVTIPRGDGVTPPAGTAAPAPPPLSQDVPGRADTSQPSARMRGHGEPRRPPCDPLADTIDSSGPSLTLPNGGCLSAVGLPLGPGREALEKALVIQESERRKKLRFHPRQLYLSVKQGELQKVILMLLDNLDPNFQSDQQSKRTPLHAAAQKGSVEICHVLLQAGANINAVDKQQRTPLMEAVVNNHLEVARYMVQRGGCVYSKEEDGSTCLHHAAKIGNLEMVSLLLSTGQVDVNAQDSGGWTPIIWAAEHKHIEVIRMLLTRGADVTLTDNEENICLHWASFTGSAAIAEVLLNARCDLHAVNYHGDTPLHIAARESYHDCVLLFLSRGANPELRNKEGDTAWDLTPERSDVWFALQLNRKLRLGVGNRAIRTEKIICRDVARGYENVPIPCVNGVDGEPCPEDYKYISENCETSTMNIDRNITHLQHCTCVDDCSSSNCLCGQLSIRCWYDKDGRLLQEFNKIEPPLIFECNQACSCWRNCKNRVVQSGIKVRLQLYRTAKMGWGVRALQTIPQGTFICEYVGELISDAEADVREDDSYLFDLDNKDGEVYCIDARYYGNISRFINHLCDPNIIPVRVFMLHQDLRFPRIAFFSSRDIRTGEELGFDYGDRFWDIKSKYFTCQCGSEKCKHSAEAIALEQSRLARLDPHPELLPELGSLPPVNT
Procedure: (§1) mM DTT and 0.01% Triton X-100 was used in experiments containing core histone.
experiments containing nucleosome.
G9a 5 core histone 0.05 mg/mL 1
GLP 5 core histone 0.05 mg/mL 1

GLP = GLP (Homo sapiens, UniProt Q9H9B1); test: HMT selectivity panel; conditions: 50 µM compound
GLP, sequence (Q9H9B1 whole entry): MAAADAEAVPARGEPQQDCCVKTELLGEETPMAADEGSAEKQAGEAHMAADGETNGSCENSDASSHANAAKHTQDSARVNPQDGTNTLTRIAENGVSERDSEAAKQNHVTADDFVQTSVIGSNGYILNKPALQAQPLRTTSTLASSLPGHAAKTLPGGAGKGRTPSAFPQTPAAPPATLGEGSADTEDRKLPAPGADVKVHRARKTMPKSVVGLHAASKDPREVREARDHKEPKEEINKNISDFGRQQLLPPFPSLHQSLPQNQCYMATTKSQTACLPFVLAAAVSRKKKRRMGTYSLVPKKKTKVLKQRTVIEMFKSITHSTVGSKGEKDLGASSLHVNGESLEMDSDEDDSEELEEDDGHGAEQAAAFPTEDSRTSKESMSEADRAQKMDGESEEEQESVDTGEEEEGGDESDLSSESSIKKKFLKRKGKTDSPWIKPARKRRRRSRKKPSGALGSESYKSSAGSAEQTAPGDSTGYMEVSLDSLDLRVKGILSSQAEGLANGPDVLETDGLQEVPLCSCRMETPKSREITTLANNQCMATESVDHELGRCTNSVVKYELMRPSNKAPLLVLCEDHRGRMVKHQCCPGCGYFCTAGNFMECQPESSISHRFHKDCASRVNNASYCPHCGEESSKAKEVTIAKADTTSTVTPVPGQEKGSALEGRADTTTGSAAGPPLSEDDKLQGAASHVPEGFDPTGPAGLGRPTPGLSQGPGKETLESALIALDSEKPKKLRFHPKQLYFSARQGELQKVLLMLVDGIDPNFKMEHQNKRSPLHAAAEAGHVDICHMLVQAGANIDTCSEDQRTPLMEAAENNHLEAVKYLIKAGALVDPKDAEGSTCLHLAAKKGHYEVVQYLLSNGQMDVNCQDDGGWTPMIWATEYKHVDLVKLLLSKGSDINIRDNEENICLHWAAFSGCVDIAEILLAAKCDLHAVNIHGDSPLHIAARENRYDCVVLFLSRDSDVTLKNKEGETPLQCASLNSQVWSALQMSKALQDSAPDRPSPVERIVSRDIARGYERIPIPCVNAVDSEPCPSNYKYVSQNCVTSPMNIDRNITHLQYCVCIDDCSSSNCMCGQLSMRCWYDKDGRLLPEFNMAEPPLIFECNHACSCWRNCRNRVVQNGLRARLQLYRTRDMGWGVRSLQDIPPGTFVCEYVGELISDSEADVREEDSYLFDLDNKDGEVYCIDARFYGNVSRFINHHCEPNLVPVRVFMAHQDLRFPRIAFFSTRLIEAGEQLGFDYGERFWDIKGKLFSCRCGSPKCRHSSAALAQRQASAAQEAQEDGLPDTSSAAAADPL
Procedure: as §1
experiments containing nucleosome.
G9a 5 core histone 0.05 mg/mL 1
GLP 5 core histone 0.05 mg/mL 1

MLL4 = test: HMT selectivity panel; conditions: MLL4, 50 µM compound
From the text: as §1

NSD1 = NSD1 (Homo sapiens, UniProt Q96L73); test: HMT selectivity panel; conditions: NSD1, 50 µM compound
From the text: as §1

NSD3 = NSD3 (Homo sapiens, UniProt Q9BZ95); test: HMT selectivity panel; conditions: NSD3, 50 µM compound
From the text: as §1

PRDM9 = PRDM9 (Homo sapiens, UniProt Q9NQV7); test: HMT selectivity panel; conditions: PRDM9, 50 µM compound
PRDM9, sequence (Q9NQV7 whole entry, species assumed): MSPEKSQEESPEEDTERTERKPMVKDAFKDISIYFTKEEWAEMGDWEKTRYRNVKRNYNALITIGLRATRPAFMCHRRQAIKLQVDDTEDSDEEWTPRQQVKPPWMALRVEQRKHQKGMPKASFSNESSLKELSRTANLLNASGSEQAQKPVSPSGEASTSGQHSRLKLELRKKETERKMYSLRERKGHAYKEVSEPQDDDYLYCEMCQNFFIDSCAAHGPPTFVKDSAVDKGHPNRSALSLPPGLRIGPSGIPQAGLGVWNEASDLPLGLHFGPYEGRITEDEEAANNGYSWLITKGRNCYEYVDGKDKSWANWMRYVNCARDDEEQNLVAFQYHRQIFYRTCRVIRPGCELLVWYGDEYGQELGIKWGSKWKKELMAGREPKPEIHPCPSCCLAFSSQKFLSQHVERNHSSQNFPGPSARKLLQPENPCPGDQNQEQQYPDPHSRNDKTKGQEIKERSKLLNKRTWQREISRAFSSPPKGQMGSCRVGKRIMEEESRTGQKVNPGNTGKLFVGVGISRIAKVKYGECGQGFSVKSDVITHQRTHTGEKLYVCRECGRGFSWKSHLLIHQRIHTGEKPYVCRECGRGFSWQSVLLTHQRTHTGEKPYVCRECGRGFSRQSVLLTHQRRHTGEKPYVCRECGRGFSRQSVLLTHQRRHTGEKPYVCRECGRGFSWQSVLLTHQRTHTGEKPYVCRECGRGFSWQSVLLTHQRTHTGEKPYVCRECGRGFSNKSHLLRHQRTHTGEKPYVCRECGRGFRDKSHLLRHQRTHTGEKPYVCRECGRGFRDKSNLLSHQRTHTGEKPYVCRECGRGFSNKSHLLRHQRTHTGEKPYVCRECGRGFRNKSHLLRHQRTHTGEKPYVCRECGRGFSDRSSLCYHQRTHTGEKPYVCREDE
From the text: as §1

PRMT1 = PRMT1 (Homo sapiens, UniProt Q99873); test: HMT selectivity panel; conditions: PRMT1, 50 µM compound
PRMT1, sequence (Q99873 whole entry, species assumed): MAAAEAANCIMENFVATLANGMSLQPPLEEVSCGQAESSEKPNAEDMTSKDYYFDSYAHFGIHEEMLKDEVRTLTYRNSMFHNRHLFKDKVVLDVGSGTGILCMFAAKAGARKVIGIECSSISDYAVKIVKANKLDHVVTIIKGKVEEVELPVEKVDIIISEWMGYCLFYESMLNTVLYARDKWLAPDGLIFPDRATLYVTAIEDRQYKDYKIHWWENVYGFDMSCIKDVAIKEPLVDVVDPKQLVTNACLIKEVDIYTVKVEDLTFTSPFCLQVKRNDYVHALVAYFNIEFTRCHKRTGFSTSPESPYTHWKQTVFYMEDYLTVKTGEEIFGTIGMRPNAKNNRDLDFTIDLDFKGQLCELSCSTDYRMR
From the text: as §1

PRMT4 = PRMT4 (Homo sapiens, UniProt Q86X55); test: HMT selectivity panel; conditions: PRMT4, 50 µM compound
PRMT4, sequence (Q86X55 whole entry, species assumed): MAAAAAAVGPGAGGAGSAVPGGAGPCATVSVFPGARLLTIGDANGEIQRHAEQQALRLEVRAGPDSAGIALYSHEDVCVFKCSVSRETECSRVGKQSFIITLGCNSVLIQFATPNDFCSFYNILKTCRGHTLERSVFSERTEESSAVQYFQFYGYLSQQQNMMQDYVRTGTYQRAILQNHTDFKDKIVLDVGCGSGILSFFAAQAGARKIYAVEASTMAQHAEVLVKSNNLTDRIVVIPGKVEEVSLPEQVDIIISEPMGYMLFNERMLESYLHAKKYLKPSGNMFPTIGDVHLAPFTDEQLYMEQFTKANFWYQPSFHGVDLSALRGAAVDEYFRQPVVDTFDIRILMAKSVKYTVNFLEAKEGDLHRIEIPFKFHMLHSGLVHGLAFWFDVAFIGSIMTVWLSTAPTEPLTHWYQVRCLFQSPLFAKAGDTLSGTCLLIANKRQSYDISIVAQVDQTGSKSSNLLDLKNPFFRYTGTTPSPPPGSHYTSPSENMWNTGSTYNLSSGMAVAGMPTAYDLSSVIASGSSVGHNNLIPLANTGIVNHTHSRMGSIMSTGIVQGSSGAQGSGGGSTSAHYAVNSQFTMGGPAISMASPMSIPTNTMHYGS
From the text: as §1

SETD2 = SETD2 (Homo sapiens, UniProt Q9BYW2); test: HMT selectivity panel; conditions: SETD2, 50 µM compound
From the text: (§2) Assay conditions for selectivity experiments with a panel of histone
as §1

SMYD2 = SMYD2 (Homo sapiens, UniProt Q9NRG4); test: HMT selectivity panel; conditions: SMYD2, 50 µM compound
From the text: as §2, §1

SUV39H2 = SUV39H2 (Homo sapiens, UniProt Q9H5I1); test: HMT selectivity panel; conditions: SUV39H2, 50 µM compound
SUV39H2, sequence (Q9H5I1 whole entry, species assumed): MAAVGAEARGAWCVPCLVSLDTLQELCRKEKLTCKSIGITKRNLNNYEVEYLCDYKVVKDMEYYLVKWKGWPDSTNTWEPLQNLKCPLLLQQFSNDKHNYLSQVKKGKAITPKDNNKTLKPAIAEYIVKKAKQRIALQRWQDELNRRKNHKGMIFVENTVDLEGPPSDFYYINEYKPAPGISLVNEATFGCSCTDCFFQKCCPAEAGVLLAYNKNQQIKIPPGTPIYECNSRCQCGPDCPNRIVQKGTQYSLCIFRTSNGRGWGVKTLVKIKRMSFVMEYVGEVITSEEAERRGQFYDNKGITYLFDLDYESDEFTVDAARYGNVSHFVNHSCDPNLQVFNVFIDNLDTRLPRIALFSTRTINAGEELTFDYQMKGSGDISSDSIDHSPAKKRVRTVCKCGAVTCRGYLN
From the text: as §2, §1

[2] = Body weight during treatment in the MV4;11 model
Procedure: Briefly, the 8- to 10-week old female NSG mice (Jackson Laboratory) were intravenously injected with 5 × 10^6 luciferase-expressing MV4;11 cells (received from Dr. Thomas Look, Dana Farber Cancer Institute). […] For imaging, mice were kept anesthetized with isoflurane, and 50 mg/kg luciferin (E1603, Promega) was administered by intraperitoneal injection. Photonic emission was imaged using the in Vivo Imaging System BLI (IVIS, 200) with total imaging time of 10 s for each mouse.
Measurements are reference to the values obtained at the first day of treatment, which were set as

[3] = test system: panel of 20 histone methyltransferases; test: Panel of 20 histone methyltransferases as a whole; conditions: 50 µM
Procedure: as §1
experiments containing nucleosome.
G9a 5 core histone 0.05 mg/mL 1
GLP 5 core histone 0.05 mg/mL 1

[4] = test system: human CD34+ cells from cord blood; test: Colony-forming assay with normal hematopoietic progenitor cells; conditions: 7 days
Procedure: The experiment was performed twice. […] Mean ± SD, n = 3 biological replicates. […] Two independent experiments were performed in triplicates. Representative graphs are shown. *P < 0.05; **P < 0.01; ****P < 0.0001; NS not significant.

[5] = Fig S12b, individual mice, AS-99 group
[6] = normal mice, 30 mg/kg, i.p., q.d., 14 days
[7] = female, CD-1, mouse, plasma, other: i.v. and i.p.

Procedure for PK studies in mice: The LC-MS/MS method consisted of a Shimadzu UFLC 20 A system and chromatographic separation of test compound was achieved using Waters XBridge C18 column (5 cm × 2.1 mm, 3.5 µm). An AB Sciex QTrap 5500 mass spectrometer equipped with an electrospray ionization source (ABI-Sciex, Toronto, Canada) in the positive-ion multiple reaction monitoring (MRM) mode was used for detection. All pharmacokinetic parameters were calculated by noncompartmental methods using WinNonlin® version 3.2 (Pharsight Corporation, Mountain View, CA, USA). Parameters are presented as a mean ± standard deviation (SD).
CL (clearance), AUC (area under the curve),
Cmax (maximum concentration achieved), Tmax (time at which maximum concentration was
achieved), were calculated by noncompartmental methods using WinNonlin® software version

Structure (SMILES): CN1CC(C(=O)NCc2ccc3c(-c4cccc(C(N)=S)c4)cn(C4CCN(S(=O)(=O)C(F)(F)F)CC4)c3c2)C1 [AS-99]
- B cells [1, 5]: 42.2% and 44% and 40.1% and 47.1% and 47.9% and 45.4% and 35.4% and 37.2% and 39.4%
- Myeloid cells [1, 5]: 16.7% and 17.1% (2×) and 23.3% and 12.6% and 14.8% and 9.84% and 22.2% and 17.7%
- T cells [1, 5]: 27.1% and 24.3% and 22.5% and 18.4% and 27% and 27.8% and 32.5% and 30% and 29.5%
- T-cells [1, 6]: unaffected
- myeloid and B-cells [1, 6]: slightly changed (increased and reduced, respectively)
- AUC (PK studies in mice; female, CD-1, mouse, plasma, ip, 30 mg/kg): 10.7 µg·h/mL
- concentration at 0.167 h (PK studies in mice; female, CD-1, mouse, plasma, ip, 30 mg/kg, blood plasma level of AS-99, i.p., time 0.167 h): 9.8 µM
- concentration at 0.25 h (PK studies in mice; female, CD-1, mouse, plasma, ip, 30 mg/kg, blood plasma level of AS-99, i.p., time 0.25 h): 9.11 µM
- concentration at 0.5 h (PK studies in mice; female, CD-1, mouse, plasma, ip, 30 mg/kg, blood plasma level of AS-99, i.p., time 0.5 h): 6.58 µM
- concentration at 1 h (PK studies in mice; female, CD-1, mouse, plasma, ip, 30 mg/kg, blood plasma level of AS-99, i.p., time 1 h): 6.11 µM
- concentration at 2 h (PK studies in mice; female, CD-1, mouse, plasma, ip, 30 mg/kg, blood plasma level of AS-99, i.p., time 2 h): 2.76 µM
- concentration at 4 h (PK studies in mice; female, CD-1, mouse, plasma, ip, 30 mg/kg, blood plasma level of AS-99, i.p., time 4 h): 0.84 µM
- concentration at 7 h (PK studies in mice; female, CD-1, mouse, plasma, ip, 30 mg/kg, blood plasma level of AS-99, i.p., time 7 h): 0.3 µM
- concentration at 16 h (PK studies in mice; female, CD-1, mouse, plasma, ip, 30 mg/kg, blood plasma level of AS-99, i.p., time 16 h): 0.084 µM
- concentration at 24 h (PK studies in mice; female, CD-1, mouse, plasma, ip, 30 mg/kg, blood plasma level of AS-99, i.p., time 24 h): 0.0337 µM
- AUC (PK studies in mice; female, CD-1, mouse, plasma, iv, 15 mg/kg): 9.7 µg·h/mL
- concentration at 0.083 h (PK studies in mice; female, CD-1, mouse, plasma, iv, 15 mg/kg, blood plasma level of AS-99, i.v., time 0.083 h): 25.8 µM
- concentration at 0.167 h (PK studies in mice; female, CD-1, mouse, plasma, iv, 15 mg/kg, blood plasma level of AS-99, i.v., time 0.167 h): 10.2 µM
- concentration at 0.25 h (PK studies in mice; female, CD-1, mouse, plasma, iv, 15 mg/kg, blood plasma level of AS-99, i.v., time 0.25 h): 6.62 µM
- concentration at 0.5 h (PK studies in mice; female, CD-1, mouse, plasma, iv, 15 mg/kg, blood plasma level of AS-99, i.v., time 0.5 h): 5.2 µM
- concentration at 1 h (PK studies in mice; female, CD-1, mouse, plasma, iv, 15 mg/kg, blood plasma level of AS-99, i.v., time 1 h): 1.78 µM
- concentration at 2 h (PK studies in mice; female, CD-1, mouse, plasma, iv, 15 mg/kg, blood plasma level of AS-99, i.v., time 2 h): 0.854 µM
- concentration at 4 h (PK studies in mice; female, CD-1, mouse, plasma, iv, 15 mg/kg, blood plasma level of AS-99, i.v., time 4 h): 0.268 µM
- concentration at 7 h (PK studies in mice; female, CD-1, mouse, plasma, iv, 15 mg/kg, blood plasma level of AS-99, i.v., time 7 h): 0.126 µM
- concentration at 16 h (PK studies in mice; female, CD-1, mouse, plasma, iv, 15 mg/kg, blood plasma level of AS-99, i.v., time 16 h): 0.0247 µM
- concentration at 24 h (PK studies in mice; female, CD-1, mouse, plasma, iv, 15 mg/kg, blood plasma level of AS-99, i.v., time 24 h): 0.0151 µM
- Cmax (PK studies in mice; [7]): > 10 µM
- half-life (PK studies in mice; [7]): 5 to 6 h
- blood plasma level of AS-99 (PK studies in mice; i.p., time 0.167 h): 8.805 µM and 7.458 µM
- blood plasma level of AS-99 (PK studies in mice; i.p., time 0.25 h): 6.902 µM and 8.721 µM
- blood plasma level of AS-99 (PK studies in mice; i.p., time 0.5 h): 6.6835 µM and 5.152 µM
- blood plasma level of AS-99 (PK studies in mice; i.p., time 1 h): 5.269 µM and 5.185 µM
- blood plasma level of AS-99 (PK studies in mice; i.p., time 2 h): 3.266 µM and 1.801 µM
- blood plasma level of AS-99 (PK studies in mice; i.p., time 4 h): 1.054 µM and 0.7104 µM
- blood plasma level of AS-99 (PK studies in mice; i.p., time 7 h): 0.3519 µM and 0.2475 µM
- blood plasma level of AS-99 (PK studies in mice; i.p., time 16 h): 0.07189 µM and 0.0867 µM
- blood plasma level of AS-99 (PK studies in mice; i.p., time 24 h): 0.04377 µM and 0.04141 µM
- blood plasma level of AS-99 (PK studies in mice; i.v., time 0.083 h): 37.8788 µM
- blood plasma level of AS-99 (PK studies in mice; i.v., time 0.167 h): 7.6431 µM
- blood plasma level of AS-99 (PK studies in mice; i.v., time 0.25 h): 5.774 µM
- blood plasma level of AS-99 (PK studies in mice; i.v., time 0.5 h): 4.798 µM
- blood plasma level of AS-99 (PK studies in mice; i.v., time 1 h): 2.559 µM
- blood plasma level of AS-99 (PK studies in mice; i.v., time 2 h): 0.6111 µM
- blood plasma level of AS-99 (PK studies in mice; i.v., time 4 h): 0.2172 µM
- blood plasma level of AS-99 (PK studies in mice; i.v., time 7 h): 0.09411 µM
- blood plasma level of AS-99 (PK studies in mice; i.v., time 16 h): 0.0298 µM
- blood plasma level of AS-99 (PK studies in mice; i.v., time 24 h): 0.01532 µM
- activity at 50 µM (G9a): 90.9%
- % activity (G9a; 50 µM): 91.9579%
- activity at 50 µM (GLP): 101%
- % activity (GLP; 50 µM): 119.954%
- % activity (MLL4): 79.3828% and 71.6922%
- activity at 50 µM (NSD1): 112%
- % activity (NSD1; 50 µM): 113.763%
- activity at 50 µM (NSD3): 145%
- % activity (NSD3; 50 µM): 128.837%
- activity at 50 µM (PRDM9): 96.8%
- % activity (PRDM9; 50 µM): 100.979%
- activity at 50 µM (PRMT1): 122%
- % activity (PRMT1; 50 µM): 110.616%
- activity at 50 µM (PRMT4): 103%
- % activity (PRMT4; 50 µM): 110.439%
- activity at 50 µM (SETD2): 101%
- % activity (SETD2; 50 µM): 99.1882%
- % activity (SMYD2): 79.4042% and 102.085%
- activity at 50 µM (SUV39H2): 88.7%
- % activity (SUV39H2; 50 µM): 78.6146%
- toxicity during the treatment period ([2]; 30 mg/kg, i.p., q.d., 14 days): No substantial toxicity
- body weight reduction ([2]; after 7 days of treatment, 30 mg/kg, i.p., q.d.): ~ 10%
- normalized body weight change ([2]; days of treatment 1): 100
- normalized body weight change ([2]; days of treatment 2): 95 and 98 and 97 and 96
- normalized body weight change ([2]; days of treatment 3): 94 and 98 and 96 and 99 and 95 and 102
- normalized body weight change ([2]; days of treatment 4): 95 and 96 and 97 and 100
- normalized body weight change ([2]; days of treatment 5): 95 and 89 and 93 and 87 and 100
- normalized body weight change ([2]; days of treatment 6): 90 and 100 and 94 and 87 and 93
- normalized body weight change ([2]; days of treatment 7): 85 and 89 and 87 and 94
- normalized body weight change ([2]; days of treatment 9): 91 and 93 and 95 and 87 and 90
- normalized body weight change ([2]; days of treatment 10): 91 and 98 and 96 and 89 and 95 and 87
- normalized body weight change ([2]; days of treatment 11): 91 and 96 and 94 and 97 and 100 and 99 and 89
- normalized body weight change ([2]; days of treatment 12): 95 and 103 and 87 and 88
- normalized body weight change ([2]; days of treatment 13): 89 and 95 and 94 and 96 and 105 and 90
- inhibition of the tested HMTs [3]: no significant inhibition
- effect on colony number or morphology [4]: no effect on colony number or morphology
- colony counts ([4]; 3 uM): 70 and 68
- colony counts ([4]; 6 uM): 86 and 64
